Results taken from paper PMC10500001, “Dual hypoxia-responsive supramolecular complex for cancer target therapy” (Nature Communications, 2023).
Several values for one entry are separate records, joined by “and”; a condition that tells them apart may be missing. Equal entries are not always repeated.

How the values were obtained:
PANC1 cells = test: CCK8 cytotoxicity of SAC5A and SBE-β-CD, 24 h; type: cell-based, human; settings: for cell viability: 24 h, in % (unit assumed)
Protocol: PANC1 cells (5 × 10^3 cells/well) were seeded into the 96-well plate and incubated overnight. They were treated with SAC5A or SBE-β-CD of different concentrations and incubated for 24 h under normoxic or hypoxic conditions, respectively. […] After a 6 h incubation under normoxic conditions, the culture medium was exchanged with fresh medium. Subsequently, the cells were incubated at 37 °C for 18 h under either normoxic or hypoxic conditions, respectively. And then, the culture medium was replaced with fresh medium and 10 μL cell counting kit-8 solution (C6005, US Everbright, Jiangsu, China). Following a 4 h incubation, the optical density was assessed at 450 nm employing a microplate reader.
Supplementary Figure 19. The cytotoxicity of SAC5A and SBE-β-CD. (a) Cell viability
Data are presented as mean ± SD (n = 6 biologically independent samples).

[1] = test system: PANC1 tumor-bearing BALB/c nude mice; test: In vivo anticancer effects of NMP and SAC5A; parameters: species or system mouse; settings: for Tumor volume: Supplementary Fig.22a
Protocol: Supplementary Figure 22. […] (a) Average […]
presented as mean ± SD (n = 6 mice per group). P values are calculated by two-way […]
Data are presented as mean ± SD ( n = 6 biologically independent samples ). P values are calculated by one-way ANOVA with Turkey’s multiple comparisons test: ns: no […]
Note: (b) During the experiment, the tumor images were taken of PBS vs NMP, PBS vs SAC5A groups respectively. As the PBS group consisted of the same tumors, the tumor

[2] = Biosafety: blood routine and blood chemistry assays
Protocol: Toxic effects are a barrier to overcome before efficient deliverability can be achieved with BE.
For in vivo anticancer efficacy study, 1 × 10^6 PANC1 cells were injected subcutaneously into the right flanks of the BALB/c nude mice. To investigate the anticancer effects of SBE-β-CD@NMP-BE, the mice with tumor volumes at around 50 mm^3 were randomized into four groups (6 mice per group) and injected intravenously via tails with 200 μL of PBS, NMP-BE (5 mg/kg), SBE-β-CD (15 mg/kg) and NMP-BE@SBE-β-CD (20 mg/kg) every two days for 8 times and the tumor volumes for 14 days were continuously monitored. Tumor were measured by using a Vernier calipers and the volume (V) was calculated to be V = d^2 × D/2, where d is the shortest and the D is longest diameter of the tumor in mm respectively. […] Tumors were measured as mentioned above. To assess potential toxicities, mice were monitored for weight loss. Tumors were collected for H&E analysis and immunofluorescence staining. Major organs including heart, liver, spleen, lung, and kidney, were collected and stained with H&E for histopathologic analysis. To evaluate biosafety of SAC5A, blood samples were collected for blood chemistry assay and blood routine assay.

PANC1 tumor tissues = test: Histology of dissected tumors (H&E, TUNEL, Ki67); settings: mouse, in vivo
Protocol: The hematoxylin-eosin (H&E) staining and terminal deoxynucleotidyl transferase dUTP nick end labeling (TUNEL) tests were next carried out to evaluate the cell pathology changes and apoptosis in the tumors of every groups. […] Meanwhile, we verified the effects of different treatments on cancer cell proliferation by immunofluorescence Ki67 staining.
(§1) Tumors were measured as mentioned above.

[3] = Competitive fluorescence titration of RhB@SAC5A with NMP-BE; settings: binding of SAC5A to NMP-BE, 1:1 competitive binding, PBS 10 mM pH 7.4, 25 °C
Protocol: Data are presented as mean ± SD (n = 3 biologically independent samples). Source data are provided as a Source Data file.
The complexation of SAC5A with NMP-BE was measured by competitive fluorescence titrations. A mixed solution containing known amounts of reporter dye (RhB), host (SAC5A) and competitive guest (NMP-BE) was injected into 2.50 mL RhB and SAC5A solution in a quartz cuvette. Care was taken to keep the concentrations of dye and SAC5A constant in the course of titrations. The fluorescence intensity was measured (λex = 554 nm for RhB) before the first addition and after every addition. The association constant was obtained by fitting fluorescence intensity (λem = 575 nm for RhB) according to a 1:1 competitive binding model. The fitting of data from direct titrations and competitive titrations was performed in a nonlinear manner, and the fitting modules were downloaded from the website of Prof. Nau’s group (http://www.jacobs-university.de/ses/wnau) under the column of “Fitting Functions”.

[4] = test system: PANC1 tumor-bearing BALB/c nude mice; test: In vivo anticancer efficacy study of NMP-BE@SAC5A; parameters: species or system mouse; settings: for Tumor volume: SAC5A 15, NMP-BE 5, NMP-BE@SAC5A 20 mg/kg iv
Excerpt: After the tumor grows to a suitable size, the tumor was divided into small pieces and then subcutaneously inoculated into the right flank of other mice. After 10 d of inoculation, when the tumor volumes of mice were around 50 mm^3, PANC1-bearing BALB/c nude mice were separated randomly with a total of six mice in each group. […] On day 18 after injection, the mice were euthanized, and their tumors were collected. […] In addition, we also investigated the anticancer effects of NMP-BE@SBE-β-CD.
as §1

**Q.** What does the source list for `O=S(=O)(O)c1ccc(/N=N/c2cc3c(O)c(c2)Cc2cc(/N=N/c4ccc(S(=O)(=O)O)cc4)cc(c2O)Cc2cc(/N=N/c4ccc(S(=O)(=O)O)cc4)cc(c2O)Cc2cc(/N=N/c4ccc(S(=O)(=O)O)cc4)cc(c2O)Cc2cc(/N=N/c4ccc(S(=O)(=O)O)cc4)cc(c2O)C3)cc1` [SAC5A, sulfonated azocalix[5]arene]?
**A.** cell viability (PANC1 cells; PANC1, Hypoxia, 10 μM): 101.91 and 106.97 and 106.87 and 103.95 and 95.76 and 94.38; cell viability (PANC1 cells; PANC1, Hypoxia, 20 μM): 98.99 and 105.90 and 107.51 and 100.07 and 96.78 and 98.26; cell viability (PANC1 cells; PANC1, Hypoxia, 40 μM): 96.62 and 103.74 and 107.19 and 94.57 and 95.43 and 98.62; cell viability (PANC1 cells; PANC1, Hypoxia, 100 μM): 89.44 and 102.24 and 97.97 and 93.46 and 97.47 and 88.44; cell viability (PANC1 cells; PANC1, Hypoxia, 200 μM): 96.47 and 99.73 and 95.34 and 92.70 and 90.07 and 95.59; cell viability (PANC1 cells; PANC1, Hypoxia, 400 μM): 98.35 and 96.22 and 97.85 and 103.12 and 92.08 and 92.95; cell viability (PANC1 cells; PANC1, Normoxia, 10 μM): 94.32 and 96.61 and 94.68 and 98.32 and 94.21 and 96.48; cell viability (PANC1 cells; PANC1, Normoxia, 20 μM): 92.78 and 88.19 and 94.36 and 97.85 and 97.21 and 107.50; cell viability (PANC1 cells; PANC1, Normoxia, 40 μM): 88.98 and 89.46 and 94.68 and 94.21 and 93.73 and 87.87; cell viability (PANC1 cells; PANC1, Normoxia, 100 μM): 86.69 and 92.80 and 86.44 and 99.65 and 91.72 and 99.02; cell viability (PANC1 cells; PANC1, Normoxia, 200 μM): 96.38 and 94.98 and 93.23 and 105.44 and 89.58 and 94.49; cell viability (PANC1 cells; PANC1, Normoxia, 400 μM): 90.21 and 94.16 and 91.97 and 97.63 and 95.37 and 92.10; cytotoxicities (PANC1 cells; PANC1 cells, 10 μM to 0.40 mM, normoxic and hypoxic): negligible; Tumor volume ([1]; day 0, individual mice (n=6)): 39.34 mm3 and 42.10 mm3 and 36.90 mm3 and 42.16 mm3; Tumor volume ([1]; day 2, individual mice (n=6)): 46.70 mm3 and 75.90 mm3 and 48.08 mm3 and 55.90 mm3; Tumor volume ([1]; day 4, individual mice (n=6)): 55.83 mm3 and 118.84 mm3 and 75.42 mm3 and 64.80 mm3; Tumor volume ([1]; day 6, individual mice (n=6)): 73.60 mm3 and 175.66 mm3 and 110.64 mm3 and 99.97 mm3; Tumor volume ([1]; day 8, individual mice (n=6)): 97.53 mm3 and 181.96 mm3 and 126.04 mm3 and 134.13 mm3; Tumor volume ([1]; day 10, individual mice (n=6)): 142.07 mm3 and 265.92 mm3 and 173.37 mm3 and 226.57 mm3; Tumor volume ([1]; day 12, individual mice (n=6)): 165.62 mm3 and 298.12 mm3 and 264.30 mm3 and 338.22 mm3; Tumor volume ([1]; day 14, individual mice (n=6)): 268.77 mm3 and 498.25 mm3 and 328.38 mm3 and 404.85 mm3; Tumor volume ([1]; day 16, individual mice (n=6)): 387.44 mm3 and 789.47 mm3 and 472.22 mm3 and 693.97 mm3; Tumor volume ([1]; day 18, individual mice (n=6)): 532.86 mm3 and 970.26 mm3 and 525.48 mm3 and 748.96 mm3; Tumor weight ([1]; individual mice (n=6), Supplementary Fig.22c): 306.9 mg and 287.7 mg and 279.3 mg and 561.1 mg and 306.5 mg and 287.3 mg; ALP ([2]; blood chemistry, individual mice 1-5, Fig.6h): 192.3 U/L and 155.8 U/L and 154.8 U/L and 192.1 U/L and 150.9 U/L; ALT ([2]; blood chemistry, individual mice 1-5, Fig.6i): 40 U/L and 44.1 U/L and 53.2 U/L and 59.2 U/L and 46 U/L; AST ([2]; blood chemistry, individual mice 1-5, Fig.6j): 141.2 U/L and 161.4 U/L and 172.2 U/L and 182.6 U/L and 148.2 U/L; CRE ([2]; blood chemistry, individual mice 1-5, Fig.6k): 141.2 µmol/L and 161.4 µmol/L and 172.2 µmol/L and 182.6 µmol/L and 148.2 µmol/L; BUN ([2]; blood chemistry, individual mice 1-5, Fig.6l): 8.3 mmol/L and 8.7 mmol/L and 6.3 mmol/L; RBC ([2]; blood routine, individual mice 1-5, Fig.6a): 10.0 1012/L and 9.2 1012/L and 9.1 1012/L and 11.1 1012/L and 11.2 1012/L; MCHC ([2]; blood routine, individual mice 1-5, Fig.6b): 305 g/L and 300 g/L and 301 g/L and 299 g/L and 308 g/L; HCT ([2]; blood routine, individual mice 1-5, Fig.6c): 51.8% and 49.2% and 51% and 53.8% and 50.9%; MCV ([2]; blood routine, individual mice 1-5, Fig.6d): 48.4 fL and 48.1 fL and 48.2 fL and 48.5 fL and 49.1 fL; PLT ([2]; blood routine, individual mice 1-5, Fig.6e): 11.4 1011/L and 11.8 1011/L and 10.7 1011/L and 11.5 1011/L and 12.0 1011/L; RDW ([2]; blood routine, individual mice 1-5, Fig.6f): 14.3% and 14.9% and 13.6% and 13.3%; MPV ([2]; blood routine, individual mice 1-5, Fig.6g): 5.3 fL and 5.4 fL and 6 fL and 5.5 fL; RBC, MCHC, HCT, MCV, PLT, RDW, MPV, ALP, ALT, AST, CRE, BUN levels versus PBS group ([2]; one-way ANOVA): no significance; RBC, MCHC, HCT, MCV, PLT, RDW, MPV values ([2]; treated mice): small alteration; TUNEL apoptosis in tumors (PANC1 tumor tissues): negligible apoptosis; Ka [3]: (5.1 ± 0.5) × 10^6 M^−1; Mice weight ([4]; Day 0, single mouse): 18.5 g and 17.7 g and 16.0 g and 18.0 g and 17.5 g and 16.6 g; Tumor volume ([4]; Day 0, single mouse): 39.34 mm3 and 42.10 mm3 and 36.90 mm3 and 42.16 mm3 and 42.33 mm3 and 56.35 mm3; Mice weight ([4]; Day 2, single mouse): 14.6 g and 16.5 g and 17.5 g and 17.9 g and 18.5 g and 17.6 g; Tumor volume ([4]; Day 2, single mouse): 46.70 mm3 and 75.90 mm3 and 48.08 mm3 and 55.90 mm3 and 59.70 mm3 and 76.08 mm3; Tumor volume ([4]; Day 4, single mouse): 55.83 mm3 and 118.84 mm3 and 75.42 mm3 and 64.80 mm3 and 72.81 mm3 and 104.25 mm3; Mice weight ([4]; Day 6, single mouse): 16.3 g and 16.8 g and 17.8 g and 19.4 g and 19.1 g; Tumor volume ([4]; Day 6, single mouse): 73.60 mm3 and 175.66 mm3 and 110.64 mm3 and 99.97 mm3 and 116.56 mm3 and 152.05 mm3; Mice weight ([4]; Day 8, single mouse): 16.1 g and 19.1 g and 16.0 g and 17.6 g and 17.1 g and 18.7 g; Tumor volume ([4]; Day 8, single mouse): 97.53 mm3 and 181.96 mm3 and 126.04 mm3 and 134.13 mm3 and 98.89 mm3 and 192.89 mm3; Mice weight ([4]; Day 10, single mouse): 15.8 g and 18.5 g and 15.6 g and 17.5 g and 16.4 g and 18.7 g; Tumor volume ([4]; Day 10, single mouse): 142.07 mm3 and 265.92 mm3 and 173.37 mm3 and 226.57 mm3 and 159.78 mm3 and 251.75 mm3; Mice weight ([4]; Day 12, single mouse): 16.5 g and 19.0 g and 16.2 g and 18.3 g and 16.3 g and 18.5 g; Tumor volume ([4]; Day 12, single mouse): 165.62 mm3 and 298.12 mm3 and 264.30 mm3 and 338.22 mm3 and 196.07 mm3 and 282.53 mm3; Mice weight ([4]; Day 14, single mouse): 16.0 g and 18.0 g and 16.1 g and 18.7 g and 16.4 g and 16.2 g; Tumor volume ([4]; Day 14, single mouse): 268.77 mm3 and 498.25 mm3 and 328.38 mm3 and 404.85 mm3 and 346.37 mm3 and 404.41 mm3; Mice weight ([4]; Day 16, single mouse): 16.6 g and 18.4 g and 19.3 g and 16.3 g and 19.7 g; Tumor volume ([4]; Day 16, single mouse): 387.44 mm3 and 789.47 mm3 and 472.22 mm3 and 693.97 mm3 and 504.38 mm3 and 616.16 mm3; Mice weight ([4]; Day 18, single mouse): 16.3 g and 17.8 g and 17.5 g and 16.2 g and 19.7 g; Tumor volume ([4]; Day 18, single mouse): 532.86 mm3 and 970.26 mm3 and 525.48 mm3 and 748.96 mm3 and 671.75 mm3 and 704.93 mm3; anticancer effect ([4]; PANC1-bearing BALB/c nude mice, iv every other day, 18 days): no anticancer effect; Tumor weight ([4]; day mice were sacrificed (day 18), single mouse): 287.7 mg and 279.3 mg and 561.1 mg and 306.5 mg and 287.3 mg and 306.9 mg
